Source: patent US20120328569A1, “INHIBITORS OF HEPATITIS C VIRUS NS5B POLYMERASE” (priority 2010, published 2012)

Each compound was assayed on HCV genotype 1b replicon (assay: HCV replicon assay, cell ELISA with antibody to replicon-encoded NS3/4A (genotype 1b replicon)). Details: HCV genotype 1b replicon; 96 hours incubation; NS3/4A cell ELISA; read-out: 1b IC50.
Assay type: cell-based, hepatitis C virus
Summary of the method: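 An ELISA on lysed cells, using an antibody against NS3/4A protease, served as the proxy for replicon RNA. Cells had first been exposed for 96 h to serially diluted compound in G418-free conditions. Percent of DMSO control was fitted with a four-parameter function to give IC50.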

SMILES	IC50 [nM]
CCOP(=O)(O)CCCN(c1cc2oc(-c3ccc(F)cc3)c(C(=O)NC)c2cc1-c1ccc(OC)c(-c2nc3c(F)cccc3o2)c1)S(C)(=O)=O [Example 844]	3.88

Same assay, conditions: Hepatitis C virus, 96 h, read-out: 1b IC50(nM), HCV genotype 1b replicon; 96 hours incubation; NS3/4A cell ELISA

SMILES	IC50 [nM]
CN(C(=O)c1c(-c2ccc(F)cc2)oc2cc(N(C)S(C)(=O)=O)c(-c3cccc(-c4cc5ccccc5[nH]4)c3)cc12)c1ccncc1 [Example 848]	6440
CNC(=O)c1c(-c2ccc(F)cc2)oc2cc(N(C)S(C)(=O)=O)c(-c3ccc(N4CCNC4=O)c(-c4nc5c(F)cccc5o4)c3)cc12 [Example 484]	3.31
CNC(=O)c1c(-c2ccc(F)cc2)oc2cc(N(C3CC(C#N)C3)S(C)(=O)=O)c(-c3ccc(OC)c(-c4nc5c(F)cc(F)cc5o4)c3)cc12 (stereo not shown) [Example 742]	4.57
CNC(=O)c1c(-c2ccc(F)cc2)oc2cc(N(CCC(F)(F)F)S(C)(=O)=O)c(-c3cccc(-c4nc5ncccc5o4)c3)cc12 [Example 872]	4.7
CNC(=O)c1c(-c2ccc(F)cc2)oc2cc(N(CCF)S(C)(=O)=O)c(-c3cc(F)cc(-c4nc5ncccc5o4)c3)cc12 [Example 873]	3.4
CNC(=O)c1c(-c2ccc(F)cc2)oc2cc(N(C(C)CF)S(C)(=O)=O)c(-c3cccc(-c4nc5ncccc5o4)c3)cc12 (stereo not shown) [Example 875]	2.1
CNC(=O)c1c(-c2ccc(F)cc2)oc2cc(N(CC(C)(CO)CO)S(C)(=O)=O)c(-c3ccc(OC)c(-c4nc5c(F)cc(F)cc5o4)c3)cc12 [Example 788]	79
CNC(=O)c1c(-c2ccc(F)cc2)oc2cc(N(CCCF)S(C)(=O)=O)c(-c3ccc(OC)c(-c4nc5ncccc5o4)c3)cc12 [Example 863]	1.8
CNC(=O)c1c(-c2ccc(F)cc2)oc2cc(N(C)S(C)(=O)=O)c(-c3ccc(OC)c(-c4nc5c(F)ccc(F)c5o4)c3)cc12 [Example 874]	2.1
CNC(=O)c1c(-c2ccc(F)cc2)oc2cc(N(CC(F)CCF)S(C)(=O)=O)c(-c3ccc(OC)c(-c4nc5c(F)cccc5o4)c3)cc12 (stereo not shown) [Example 810]	13.4
CNC(=O)c1c(-c2ccc(F)cc2)oc2cc(N(C)S(C)(=O)=O)c(-c3cccc(-c4cc5c(F)cc(F)cc5s4)c3)cc12 [Example 685]	12
CNC(=O)c1c(-c2ccc(F)cc2)oc2cc(N(CC3CCS(=O)(=O)C3)S(C)(=O)=O)c(-c3ccc(OC)c(-c4nc5c(F)cccc5o4)c3)cc12 (stereo not shown) [Example 717]	2.84
CNC(=O)c1c(-c2ccc(F)cc2)oc2cc(N(C)S(C)(=O)=O)c(-c3ccc(OC)c(-c4csc5ncccc45)c3)cc12 [Example 686]	17.6
CNC(=O)c1c(-c2ccc(F)cc2)oc2cc(N(C3CN(C(=O)[C@@H](NC(=O)OC)C(C)C)C3)S(C)(=O)=O)c(-c3ccc(OC)c(-c4nc5c(F)cccc5o4)c3)cc12 [Example 834]	11.5
CNC(=O)c1c(-c2ccc(F)cc2)oc2cc(N(CC3(C#N)CC3)S(C)(=O)=O)c(-c3ccc(OC)c(-c4nc5c(F)cccc5o4)c3)cc12 [Example 737]	19
CNC(=O)c1c(-c2ccc(F)cc2)oc2cc(N(CC3(C)COC3)S(C)(=O)=O)c(-c3ccc(OC)c(-c4nc5c(F)cc(F)cc5o4)c3)cc12 [Example 725]	10.5

Same assay, conditions: Hepatitis C virus, 96 h, read-out: Replicon 1b IC50 (nM), HCV genotype 1b replicon cells, 96 hours incubation, NS3/4A ELISA readout

SMILES	IC50 [nM]
CNC(=O)c1c(-c2ccc(F)cc2)oc2cc(N(C)S(C)(=O)=O)c(-c3ccc(OC(F)(F)F)c(-c4nc5ccccc5o4)c3)cc12 [Example 179]	7.2
CCC(CC)CN(c1cc2oc(-c3ccc(F)cc3)c(C(=O)NC)c2cc1-c1ccccc1)S(C)(=O)=O [Example 23, 6-[(2-ethylbutyl) (methylsulfonyl)amino]-2-(4-fluorophenyl)-N-methyl-5-phenyl-1-benzofuran-3-carboxamide]	374
CNC(=O)c1c(-c2ccc(F)cc2)oc2cc(N(C)S(C)(=O)=O)c(-c3ccc(OC)c(-c4cc5cccc(F)c5[nH]4)c3)cc12 [Compound 374]	52.4
CNC(=O)c1c(-c2ccc(F)cc2)oc2cc(N(C)S(C)(=O)=O)c(-c3ccc(OC)c(-c4nc5cncnc5[nH]4)c3)cc12 [Example 344]	2.2
CNC(=O)c1c(-c2ccc(F)cc2)oc2cc(N(C)S(C)(=O)=O)c(-c3cccc(-c4nc5c(F)cccc5[nH]4)c3)cc12 [Example 304]	1.3
CNC(=O)c1c(-c2ccc(F)cc2)oc2cc(N(C)S(C)(=O)=O)c(-c3cccc(-c4nc5cncnc5s4)c3)cc12 [Example 273]	2.2
CNC(=O)c1c(-c2ccc(F)cc2)oc2cc(N(C)S(C)(=O)=O)c(-c3cccc(-c4nc5cccnc5s4)c3)cc12 [Example 142, 2-(4-fluorophenyl)-N-methyl-6-[methyl (methylsulfonyl)amino]-5-[3-([1,3]thiazolo[5,4-b]pyridin-2-yl)phenyl]-1-benzofuran-3-carboxamide]	1
CNC(=O)c1c(-c2ccc(F)cc2)oc2cc(N(C)S(C)(=O)=O)c(-c3ccccc3F)cc12 [Example 78, 5-(2-fluorophenyl)-2-(4-fluorophenyl)-N-methyl-6-[methyl(methylsulfonyl)amino]-1-benzofuran-3-carboxamide]	215
CNC(=O)c1c(-c2ccc(F)cc2)oc2cc(N(C)S(C)(=O)=O)c(-c3cc(F)cc(F)c3)cc12 [Example 111, 5-(3,5-difluorophenyl)-2-(4-fluorophenyl)-N-methyl-6-[methyl(methylsulfonyl)amino]-1-benzofuran-3-carboxamide]	40
CNC(=O)c1c(-c2ccc(F)cc2)oc2cc(N(C)S(C)(=O)=O)c(-c3cccc(-c4nc5ccncc5[nH]4)c3)cc12 [Example 333]	6
CNC(=O)c1c(-c2ccc(F)cc2)oc2cc(N(C)S(C)(=O)=O)c(-c3cccc(-c4nc5ccc(OC)nc5[nH]4)c3)cc12 [Example 327]	3.8
CNC(=O)c1c(-c2ccc(F)cc2)oc2cc(N(C)S(=O)(=O)c3ccccc3)c(-c3cccc(-c4nc5ncccc5o4)c3)cc12 [Example 400, 2-(4-fluorophenyl)-N-methyl-6-(N-methylphenylsulfonamido)-5(3-(oxazolo[4,5-b]pyridin-2-yl)phenyl)benzofuran-3-carboxamide]	303
CNC(=O)c1c(-c2ccc(F)cc2)oc2cc(N(C)S(C)(=O)=O)c(-c3ccc(F)c(-c4nc5cnccc5o4)c3)cc12 [Example 213]	2.5
CNC(=O)c1c(-c2ccc(F)cc2)oc2cc(N(C)S(C)(=O)=O)c(-c3ccc(O)cc3)cc12 [Example 113, 2-(4-fluorophenyl)-5-(4-hydroxyphenyl)-N-methyl-6-[methyl(methylsulfonyl)amino]-1-benzofuran-3-carboxamide]	74
CNC(=O)c1c(-c2ccc(F)cc2)oc2cc(N(C)S(C)(=O)=O)c(-c3cc(Cl)cc(-c4nc5c(F)cccc5o4)c3)cc12 [Example 406]	15.1
CNC(=O)c1c(-c2ccc(F)cc2)oc2cc(N(C)S(C)(=O)=O)c(-c3cccc(-c4cc5cccnc5[nH]4)c3)cc12 [Compound 369]	2.7
CNC(=O)c1c(-c2ccc(F)cc2)oc2cc(N(C)S(C)(=O)=O)c(-c3cccc(-c4nc5c(C)cccc5o4)c3)cc12 [Example 173]	5.6
CNC(=O)c1c(-c2ccc(F)cc2)oc2cc(N(C)S(C)(=O)=O)c(-c3ccc(C#N)cc3)cc12 [Example 85, 5-(4-cyanophenyl)-2-(4-fluorophenyl)-N-methyl-6-[methyl (methylsulfonyl)amino]-1-benzofuran-3-carboxamide]	43
CNC(=O)c1c(-c2ccc(F)cc2)oc2cc(N(C)S(C)(=O)=O)c(-c3cc(F)c(F)c(-c4nc5ncccc5o4)c3)cc12 [Example 243]	1.3
CNC(=O)c1c(-c2ccc(F)cc2)oc2cc(N(C)S(C)(=O)=O)c(-c3cccc(-c4nc5ccncc5s4)c3)cc12 [Example 264]	2.9
CCS(=O)(=O)N(C)c1cc2oc(-c3ccc(F)cc3)c(C(=O)NC)c2cc1-c1cccc(-c2nc3ncccc3o2)c1 [Compound 401]	1.8
CNC(=O)c1c(-c2ccc(F)cc2)oc2cc(N(C)S(C)(=O)=O)c(-c3ccc(F)c(-c4nc5c(C)ccnc5[nH]4)c3)cc12 [Example 310]	1.8
CNC(=O)c1c(-c2ccc(F)cc2)oc2cc(N(CCN(C)Cc3ccccc3)S(C)(=O)=O)c(-c3ccccc3)cc12 [Example 124, 6-[{2-[benzyl(methyl)amino]ethyl} (methylsulfonyl)amino]-2-(4-fluorophenyl)-N-methyl-5-phenyl-1-benzofuran-3-carboxamide]	> 10000
CNC(=O)c1c(-c2ccc(F)cc2)oc2cc(N(C)S(C)(=O)=O)c(-c3cccc(-c4nc5cccc(F)c5s4)c3)cc12 [Example 279]	3.2
CNC(=O)c1c(-c2ccc(F)cc2)oc2cc(N(C)S(C)(=O)=O)c(-c3ccccc3OC)cc12 [Example 79, 2-(4-fluorophenyl)-5-(2-methoxyphenyl)-N-methyl-6-[methyl (methylsulfonyl)amino]-1-benzofuran-3-carboxamide]	320
CNC(=O)c1c(-c2ccc(F)cc2)oc2cc(N(CCN(C)c3ccccc3)S(C)(=O)=O)c(-c3ccccc3)cc12 [Example 3, 2-(4-fluorophenyl)-N-methyl-6-[{2-[methyl(phenyl)amino]ethyl} (methylsulfonyl)amino]-5-phenyl-1-benzofuran-3-carboxamide]	80
CNC(=O)c1c(-c2ccc(F)cc2)oc2cc(N(C)S(C)(=O)=O)c(-c3cc(OC)c(OC)c(-c4nc5ncccc5o4)c3)cc12 [Example 234]	2.7
CNC(=O)c1c(-c2ccc(F)cc2)oc2cc(N(C)S(C)(=O)=O)c(-c3cccc(-c4[nH]c5ccccc5c4Br)c3)cc12 [Example 382, 5-(3-(3-bromo-1H-indol-2-yl)phenyl)-2-(4-fluorophenyl)-N-methyl-6-(N-methylmethylsulfonamido)benzofuran-3-carboxamide]	8.9

Same assay, conditions: read-out: 1b IC50; HCV genotype 1b replicon; 96 hours incubation; NS3/4A cell ELISA

SMILES	IC50 [nM]
CNC(=O)c1c(-c2ccc(F)cc2)oc2cc(N(CC(O)Cn3ccnc3)S(C)(=O)=O)c(-c3ccc(OC)c(-c4nc5c(F)cccc5o4)c3)cc12 (stereo not shown) [Example 824]	17.7
